Legend:
[1] = biological target: T1, human IGF1R (hIGF1R) (Homo sapiens, UniProt P08069); test: TR-FRET kinase assay of purified hIGF1R; type: biochemical; conditions: activated hIGF1R 0.5 nM, 10 μM ATP, values given as pIC50 category, read-out: IGF-1R pIC50 (converted)
T1 construct: containing amino acid residues 957-1367 of human IGF1R; made in house; host or cells: Sf9 cells (baculovirus)

[2] = biological target: T2, human IR (hIR) (Homo sapiens, UniProt P06213); test: TR-FRET kinase assay of purified hIR; type: biochemical; conditions: activated hIR 0.5 nM, 10 μM ATP, values given as pIC50 category
T2 construct: containing amino acid residues 979-1382 of human IR; made in house; host or cells: Sf9 cells (baculovirus), same process as hIGF1R

[3] = biological target: T3, NIH-3T3 cells overexpressing human IGF-1R (Homo sapiens, UniProt P08069); test: IGF-1R cellular autophosphorylation (DELFIA); type: cell-based
T3 construct: expressed in transfected cells; host or cells: NIH-3T3 (mouse fibroblasts)
Outline: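 Receptor autophosphorylation measured by DELFIA, capturing IGF-1R or IRβ and detecting with europium anti-pTyr, reported as percent of IGF-1- or insulin-stimulated signal. Compounds (30 uM to 1.5 nM) added 2 h before ligand, then 15 min stimulation (IGF-1 30 ng/ml or insulin 3 ug/ml).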

T2 sequence (P06213 979-1382): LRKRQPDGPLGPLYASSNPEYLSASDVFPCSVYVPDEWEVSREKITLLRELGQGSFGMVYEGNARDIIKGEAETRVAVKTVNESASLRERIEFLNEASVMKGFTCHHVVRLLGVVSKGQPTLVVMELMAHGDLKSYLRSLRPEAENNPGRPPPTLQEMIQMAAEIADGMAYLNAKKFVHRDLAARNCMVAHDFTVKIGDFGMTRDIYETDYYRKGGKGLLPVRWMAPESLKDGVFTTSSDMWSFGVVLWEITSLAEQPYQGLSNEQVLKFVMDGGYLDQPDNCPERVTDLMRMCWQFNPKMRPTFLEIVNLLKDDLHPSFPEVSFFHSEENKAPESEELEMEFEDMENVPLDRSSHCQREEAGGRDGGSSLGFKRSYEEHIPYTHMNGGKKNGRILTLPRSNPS
T3 sequence (P08069 31-1367): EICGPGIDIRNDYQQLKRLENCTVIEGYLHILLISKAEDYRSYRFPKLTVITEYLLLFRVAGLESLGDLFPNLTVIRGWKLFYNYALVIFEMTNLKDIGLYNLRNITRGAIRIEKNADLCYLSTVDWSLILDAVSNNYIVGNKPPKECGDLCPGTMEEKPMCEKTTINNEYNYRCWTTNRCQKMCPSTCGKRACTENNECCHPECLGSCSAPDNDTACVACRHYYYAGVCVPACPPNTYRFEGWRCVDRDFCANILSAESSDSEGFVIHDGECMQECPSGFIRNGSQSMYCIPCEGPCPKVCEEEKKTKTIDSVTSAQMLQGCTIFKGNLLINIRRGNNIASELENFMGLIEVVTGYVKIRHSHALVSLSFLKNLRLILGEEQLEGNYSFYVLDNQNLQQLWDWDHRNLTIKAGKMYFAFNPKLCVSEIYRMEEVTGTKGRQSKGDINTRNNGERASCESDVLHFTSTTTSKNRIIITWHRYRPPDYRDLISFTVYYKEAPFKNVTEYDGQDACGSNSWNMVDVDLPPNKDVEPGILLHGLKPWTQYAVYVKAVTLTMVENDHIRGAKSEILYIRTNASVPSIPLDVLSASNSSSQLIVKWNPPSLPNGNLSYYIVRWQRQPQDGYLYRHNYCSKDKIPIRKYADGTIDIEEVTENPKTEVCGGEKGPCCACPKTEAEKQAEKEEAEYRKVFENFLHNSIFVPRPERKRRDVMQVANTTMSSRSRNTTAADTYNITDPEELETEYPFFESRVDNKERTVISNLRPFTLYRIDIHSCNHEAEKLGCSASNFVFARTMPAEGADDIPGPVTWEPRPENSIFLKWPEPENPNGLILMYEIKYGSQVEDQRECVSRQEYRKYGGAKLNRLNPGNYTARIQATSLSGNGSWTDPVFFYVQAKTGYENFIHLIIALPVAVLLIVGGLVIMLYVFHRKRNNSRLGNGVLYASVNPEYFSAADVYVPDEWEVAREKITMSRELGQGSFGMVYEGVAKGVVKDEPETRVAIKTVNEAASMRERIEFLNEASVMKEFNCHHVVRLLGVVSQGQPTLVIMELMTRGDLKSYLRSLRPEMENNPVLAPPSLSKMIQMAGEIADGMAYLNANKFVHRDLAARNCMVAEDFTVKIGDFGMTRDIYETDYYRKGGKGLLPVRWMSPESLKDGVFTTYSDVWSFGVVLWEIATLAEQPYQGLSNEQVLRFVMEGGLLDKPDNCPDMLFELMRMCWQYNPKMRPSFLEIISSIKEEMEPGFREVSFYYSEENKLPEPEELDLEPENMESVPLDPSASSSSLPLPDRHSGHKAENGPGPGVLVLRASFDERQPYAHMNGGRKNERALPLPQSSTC
T1 sequence (P08069 957-1367): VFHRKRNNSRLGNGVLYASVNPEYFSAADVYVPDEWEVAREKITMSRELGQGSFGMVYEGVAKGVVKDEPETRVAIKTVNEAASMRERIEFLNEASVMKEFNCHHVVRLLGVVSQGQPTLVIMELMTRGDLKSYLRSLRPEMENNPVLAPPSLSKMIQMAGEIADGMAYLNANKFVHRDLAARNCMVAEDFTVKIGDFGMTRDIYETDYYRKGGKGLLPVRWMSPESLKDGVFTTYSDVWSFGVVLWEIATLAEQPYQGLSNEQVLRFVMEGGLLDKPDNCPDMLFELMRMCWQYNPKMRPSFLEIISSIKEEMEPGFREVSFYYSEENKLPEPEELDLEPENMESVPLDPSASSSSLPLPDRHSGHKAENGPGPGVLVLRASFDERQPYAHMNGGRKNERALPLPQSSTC

Compound	IC50 [1] [nM]	IC50 [2] [nM]	IC50 [3] [nM]
COc1cc(N2CCN(C(C)C)CC2)c(C)cc1Nc1nc(Nc2cc(F)cc(F)c2C(N)=O)c2cc[nH]c2n1 [Example 91, 2,4-difluoro-6-[(2-{[5-methyl-4-[4-(1-methylethyl)-1-piperazinyl]-2-(methyloxy)phenyl]amino}-1H-pyrrolo[2,3-d]pyrimidin-4-yl)amino]benzamide]	0.251 to 1	1.26 to 3.98	< 100
COc1ccc(NC(=O)CN(C)C)cc1Nc1nc(Nc2cccc(F)c2C(N)=O)c2cc[nH]c2n1 [Example 244, 2-[(2-{[5-[(N,N-dimethylglycyl)amino]-2-(methyloxy)phenyl]amino}-1H-pyrrolo[2,3-d]pyrimidin-4-yl)amino]-6-fluorobenzamide]	0.251 to 1	0.251 to 1	< 100
CCC(C)N1CCc2cc(OC)c(Nc3nc(Nc4cccc(F)c4C(=O)NC)c4cc[nH]c4n3)cc2C1 (stereo not drawn) [Example 238, 2-fluoro-N-methyl-6-[(2-{[6-(methyloxy)-2-(1-methylpropyl)-1,2,3,4-tetrahydro-7-isoquinolinyl]amino}-1H-pyrrolo[2,3-d]pyrimidin-4-yl)amino]benzamide]	5.01 to 200	1.26 to 3.98	> 500
CNC(=O)c1c(F)cccc1Nc1nc(Nc2cc3c(cc2OC)CCN3C(=O)C(C)(C)O)nc2[nH]ccc12 [Example 193, 2-fluoro-6-[(2-{[1-(2-hydroxy-2-methylpropanoyl)-5-(methyloxy)-2,3-dihydro-1H-indol-6-yl]amino}-1H-pyrrolo[2,3-d]pyrimidin-4-yl)amino]-N-methylbenzamide]	5.01 to 200	5.01 to 158	> 500
COc1cc2c(cc1Nc1nc(Nc3cccc(F)c3C(N)=O)c3cc[nH]c3n1)N(C(=O)CN1CCOCC1)CC2 [Example 185, 2-fluoro-6-[(2-{[5-(methyloxy)-1-(4-morpholinylacetyl)-2,3-dihydro-1H-indol-6-yl]amino}-1H-pyrrolo[2,3-d]pyrimidin-4-yl)amino]benzamide]	5.01 to 200	5.01 to 158	< 100
COc1ccc(OC[C@@H](O)CN(C)C)cc1Nc1nc(Nc2cc(F)ccc2C(N)=O)c2cc[nH]c2n1 [Example 86, 2-[(2-{[5-{[(2S)-3-(dimethylamino)-2-hydroxypropyl]oxy}-2-(methyloxy)phenyl]amino}-1H-pyrrolo[2,3-d]pyrimidin-4-yl)amino]-4-fluorobenzamide]	0.251 to 1	0.251 to 1	100 to 500
COc1ccc(NC(=O)CN(C)C)cc1Nc1nc(Nc2ccccc2C(N)=O)c2cc[nH]c2n1 [Example 15, 2-[(2-{[5-[(N,N-dimethylglycyl)amino]-2-(methyloxy)phenyl]amino}-1H-pyrrolo[2,3-d]pyrimidin-4-yl)amino]benzamide]	0.251 to 1	0.251 to 1	< 100
COc1ccc(OC[C@@H](O)CN2CCCC2)cc1Nc1nc(Nc2cc(F)c(F)cc2C(N)=O)c2cc[nH]c2n1 [Example 107, 4,5-difluoro-2-[(2-{[5-{[(2S)-2-hydroxy-3-(1-pyrrolidinyl)propyl]oxy}-2-(methyloxy)phenyl]amino}-1H-pyrrolo[2,3-d]pyrimidin-4-yl)amino]benzamide]	0.251 to 1	0.251 to 1	100 to 500
CCCN1CCC=C(c2ccc(Nc3nc(Nc4ccccc4C(N)=O)c4cc[nH]c4n3)c(OC)c2)C1 [Example 2, 2-[(2-{[2-(methyloxy)-4-(1-propyl-1,2,5,6-tetrahydro-3-pyridinyl)phenyl]amino}-1H-pyrrolo[2,3-d]pyrimidin-4-yl)amino]benzamide]	0.251 to 1	0.251 to 1	100 to 500
CCCN1CCC(N2CCc3cc(OC)c(Nc4nc(Nc5cccc(F)c5C(N)=O)c5cc[nH]c5n4)cc3C2)CC1 [Example 122, 2-fluoro-6-[(2-{[6-(methyloxy)-2-(1-propyl-4-piperidinyl)-1,2,3,4-tetrahydro-7-isoquinolinyl]amino}-1H-pyrrolo[2,3-d]pyrimidin-4-yl)amino]benzamide]	5.01 to 200	1.26 to 3.98	100 to 500
COc1cc2c(cc1Nc1nc(Nc3cc4ccccc4cc3C(N)=O)c3cc[nH]c3n1)N(C(=O)CN(C)C)CC2 [Example 124, 3-[(2-{[1-(N,N-dimethylglycyl)-5-(methyloxy)-2,3-dihydro-1H-indol-6-yl]amino}-1H-pyrrolo[2,3-d]pyrimidin-4-yl)amino]-2-naphthalenecarboxamide]	0.251 to 1	0.251 to 1	< 100
COc1cc2c(cc1Nc1nc(Nc3cccc(F)c3C(N)=O)c3cc[nH]c3n1)CN(C(=O)CCN1CCOCC1)CC2 [Example 231, 2-fluoro-6-{[2-({6-(methyloxy)-2-[3-(4-morpholinyl)propanoyl]-1,2,3,4-tetrahydro-7-isoquinolinyl}amino)-1H-pyrrolo[2,3-d]pyrimidin-4-yl]amino}benzamide]	5.01 to 200	5.01 to 158	100 to 500
COc1cc(N2CCN(C(C)C)CC2)ccc1Nc1nc(Nc2cc(F)cc(F)c2C(N)=O)c2cc[nH]c2n1 [Example 89, 2,4-difluoro-6-[(2-{[4-[4-(1-methylethyl)-1-piperazinyl]-2-(methyloxy)phenyl]amino}-1H-pyrrolo[2,3-d]pyrimidin-4-yl)amino]benzamide]	0.251 to 1	0.251 to 1	< 100
CCNC(=O)c1c(F)cc(F)cc1Nc1nc(Nc2cc3c(cc2OC)CCN3C(=O)CN(C)C)nc2[nH]ccc12 [Example 151, 2-[(2-{[1-(N,N-dimethylglycyl)-5-(methyloxy)-2,3-dihydro-1H-indol-6-yl]amino}-1H-pyrrolo[2,3-d]pyrimidin-4-yl)amino]-N-ethyl-4,6-difluorobenzamide]	0.251 to 1	0.251 to 1	100 to 500
COc1cc2c(cc1Nc1nc(Nc3cc(F)cc(F)c3C(N)=O)c3cc[nH]c3n1)N(C(=O)CN(C)C)CC2 [Example 189, 2-[(2-{[1-(N,N-dimethylglycyl)-5-(methyloxy)-2,3-dihydro-1H-indol-6-yl]amino}-1H-pyrrolo[2,3-d]pyrimidin-4-yl)amino]-4,6-difluorobenzamide]	0.251 to 1	0.251 to 1	< 100
COc1cc(C2CCN(C(C)C)CC2)ccc1Nc1nc(Nc2ccc(F)cc2C(N)=O)c2cc[nH]c2n1 [Example 58, 5-fluoro-2-[(2-{[4-[1-(1-methylethyl)-4-piperidinyl]-2-(methyloxy)phenyl]amino}-1H-pyrrolo[2,3-d]pyrimidin-4-yl)amino]benzamide]	0.251 to 1	0.251 to 1	< 100
CCCNC(=O)c1c(F)cc(F)cc1Nc1nc(Nc2cc3c(cc2OC)CCN3C(=O)CN(C)C)nc2[nH]ccc12 [Example 152, 2-[(2-{[1-(N,N-dimethylglycyl)-5-(methyloxy)-2,3-dihydro-1H-indol-6-yl]amino}-1H-pyrrolo[2,3-d]pyrimidin-4-yl)amino]-4,6-difluoro-N-propylbenzamide]	0.251 to 1	1.26 to 3.98	100 to 500
COc1cc2c(cc1Nc1nc(Nc3cccc(F)c3C(N)=O)c3cc[nH]c3n1)CN(C(=O)CCN(C)C)CC2 [Example 230, 2-[(2-{[2-(N,N-dimethyl-β-alanyl)-6-(methyloxy)-1,2,3,4-tetrahydro-7-isoquinolinyl]amino}-1H-pyrrolo[2,3-d]pyrimidin-4-yl)amino]-6-fluorobenzamide]	5.01 to 200	5.01 to 158	> 500
COc1cc(OCCN2CCN(C)CC2)ccc1Nc1nc(Nc2cccc(F)c2C(N)=O)c2cc[nH]c2n1 [Example 203, 2-fluoro-6-({2-[(2-(methyloxy)-4-{[2-(4-methyl-1-piperazinyl)ethyl]oxy}phenyl)amino]-1H-pyrrolo[2,3-d]pyrimidin-4-yl}amino)benzamide]	5.01 to 200	1.26 to 3.98	100 to 500
COc1cc(N2CCCN(C(C)C)CC2)ccc1Nc1nc(Nc2cccc(F)c2C(N)=O)c2cc[nH]c2n1 [Example 208, 2-fluoro-6-[(2-{[4-[4-(1-methylethyl)hexahydro-1H-1,4-diazepin-1-yl]-2-(methyloxy)phenyl]amino}-1H-pyrrolo[2,3-d]pyrimidin-4-yl)amino]benzamide]	5.01 to 200	5.01 to 158	100 to 500
CCCN(CCC)[C@@H](C)C(=O)N1CCc2cc(OC)c(Nc3nc(Nc4cccc(F)c4C(=O)NC)c4cc[nH]c4n3)cc21 [Example 191, 2-[(2-{[1-(N,N-dipropyl-L-alanyl)-5-(methyloxy)-2,3-dihydro-1H-indol-6-yl]amino}-1H-pyrrolo[2,3-d]pyrimidin-4-yl)amino]-6-fluoro-N-methylbenzamide]	5.01 to 200	5.01 to 158	100 to 500
COc1cc(OCCCN2CCN(C)CC2)ccc1Nc1nc(Nc2cccc(F)c2C(N)=O)c2cc[nH]c2n1 [Example 205, 2-fluoro-6-({2-[(2-(methyloxy)-4-{[3-(4-methyl-1-piperazinyl)propyl]oxy}phenyl)amino]-1H-pyrrolo[2,3-d]pyrimidin-4-yl}amino)benzamide]	5.01 to 200	1.26 to 3.98	100 to 500
COc1ccc(C(N)=O)c(Nc2nc(Nc3ccc(N4CCOC[C@@H]4C)cc3OC)nc3[nH]ccc23)c1 [Example 39, 2-[(2-{[4-[(3S)-3-methyl-4-morpholinyl]-2-(methyloxy)phenyl]amino}-1H-pyrrolo[2,3-d]pyrimidin-4-yl)amino]-4-(methyloxy)benzamide]	5.01 to 200	1.26 to 3.98	100 to 500

— patent US7981903B2, “2-[2-{phenylamino}-1H-pyrrolo[2,3-D]pyrimidin-4-yl)amino] benzamide derivatives as IGF-1R inhibitors for the treatment of cancer” (GlaxoSmithKline LLC, priority 2007, dated 2011)
